According to patent US7994140B2, “Classes of compounds that interact with GPCRs” (Alchemia Limited, priority 2002, dated 2011):

Experiments:
MC4 = biological target: T1, MC4 (Homo sapiens, UniProt P32245); experiment: GPCR radioligand binding (RLB) assay, melanocortin MC4, [125I]NDP-αMSH; settings: 10 micromolar; Example Library 4
T1 construct: purchased Perkin Elmer BioSignal; host or cells: HEK 293
Summary of the method: (§1)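 Membranes from HEK 293 cells expressing the recombinant human receptor were equilibrated with [125I]SST-14 (SST5) or [125I]NDP-αMSH (MC4), then compound added for an optimized incubation. Bound ligand separated by filtration on PEI-coated glass fiber and counted by liquid scintillation.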

SST5 = biological target: T2, SST5 (Homo sapiens, UniProt P35346); experiment: GPCR radioligand binding (RLB) assay, somatostatin SST5, [125I]SST-14; settings: 10 micromolar; Example Library 4
T2 construct: purchased Perkin Elmer BioSignal; host or cells: HEK 293
T2 sequence (P35346 whole entry): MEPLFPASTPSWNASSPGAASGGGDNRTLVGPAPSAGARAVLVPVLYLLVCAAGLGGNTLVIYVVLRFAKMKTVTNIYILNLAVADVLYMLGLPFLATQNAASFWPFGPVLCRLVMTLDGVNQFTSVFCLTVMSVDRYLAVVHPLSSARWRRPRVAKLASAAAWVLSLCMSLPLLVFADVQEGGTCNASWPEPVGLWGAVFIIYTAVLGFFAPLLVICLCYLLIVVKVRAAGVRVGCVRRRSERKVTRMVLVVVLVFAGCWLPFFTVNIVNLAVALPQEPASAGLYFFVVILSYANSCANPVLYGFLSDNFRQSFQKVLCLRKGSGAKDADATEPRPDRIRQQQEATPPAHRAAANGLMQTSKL
Summary of the method: as §1

T1 sequence (P32245 whole entry): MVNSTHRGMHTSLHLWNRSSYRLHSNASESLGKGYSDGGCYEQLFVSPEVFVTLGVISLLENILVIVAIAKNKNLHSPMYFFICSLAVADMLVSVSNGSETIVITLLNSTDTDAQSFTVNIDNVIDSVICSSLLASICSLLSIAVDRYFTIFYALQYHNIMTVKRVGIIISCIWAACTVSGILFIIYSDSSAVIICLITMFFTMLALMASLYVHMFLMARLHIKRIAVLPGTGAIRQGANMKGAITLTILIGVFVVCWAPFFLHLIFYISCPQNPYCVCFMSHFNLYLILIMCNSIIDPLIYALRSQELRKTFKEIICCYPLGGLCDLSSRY

COCC1OC(OCc2ccc(Cl)cc2)C(NC(=O)CCCNC(=N)N)C(OCc2ccc(Cl)cc2)C1O (stereo not shown) [Compound 247]
MC4 inhibition at 10 micromolar (MC4): + (Indicates inhibition greater than . . . 50%)
SSTS inhibition at 10 micromolar (SST5): + (Indicates inhibition greater than . . . 50%)

COCC1OC(OCc2ccc(Cl)cc2)C(NC(=O)CN)C(OCc2ccc(-c3ccccc3)cc2)C1O (stereo not shown) [Compound 248]
MC4 inhibition at 10 micromolar (MC4): + (Indicates inhibition greater than . . . 50%)
SSTS inhibition at 10 micromolar (SST5): + (Indicates inhibition greater than . . . 50%)

COCC1OC(OCc2ccc(Cl)cc2)C(NC(=O)CNC(=N)N)C(OCc2ccc(-c3ccccc3)cc2)C1O (stereo not shown) [Compound 249]
MC4 inhibition at 10 micromolar (MC4): + (Indicates inhibition greater than . . . 50%)
SSTS inhibition at 10 micromolar (SST5): + (Indicates inhibition greater than . . . 50%)

COCC1OC(OCc2ccc(Cl)cc2)C(NC(=O)CCN)C(OCc2ccc(-c3ccccc3)cc2)C1O (stereo not shown) [Compound 250]
MC4 inhibition at 10 micromolar (MC4): + (Indicates inhibition greater than . . . 50%)
SSTS inhibition at 10 micromolar (SST5): + (Indicates inhibition greater than . . . 50%)

COCC1OC(OCc2ccc(Cl)cc2)C(NC(=O)CCNC(=N)N)C(OCc2ccc(-c3ccccc3)cc2)C1O (stereo not shown) [Compound 251]
MC4 inhibition at 10 micromolar (MC4): + (Indicates inhibition greater than . . . 50%)
SSTS inhibition at 10 micromolar (SST5): + (Indicates inhibition greater than . . . 50%)

COCC1OC(OCc2ccc(Cl)cc2)C(NC(=O)CCCN)C(OCc2ccc(-c3ccccc3)cc2)C1O (stereo not shown) [Compound 252]
MC4 inhibition at 10 micromolar (MC4): + (Indicates inhibition greater than . . . 50%)
SSTS inhibition at 10 micromolar (SST5): + (Indicates inhibition greater than . . . 50%)

COCC1OC(OCc2ccc(Cl)cc2)C(NC(=O)CCCNC(=N)N)C(OCc2ccc(-c3ccccc3)cc2)C1O (stereo not shown) [Compound 253]
MC4 inhibition at 10 micromolar (MC4): + (Indicates inhibition greater than . . . 50%)
SSTS inhibition at 10 micromolar (SST5): + (Indicates inhibition greater than . . . 50%)

COCC1OC(OCc2ccc(Cl)cc2)C(NC(=O)CN)C(OCc2ccc3ccccc3c2)C1O (stereo not shown) [Compound 254]
MC4 inhibition at 10 micromolar (MC4): + (Indicates inhibition greater than . . . 50%)
SSTS inhibition at 10 micromolar (SST5): + (Indicates inhibition greater than . . . 50%)

COCC1OC(OCc2ccc(Cl)cc2)C(NC(=O)CNC(=N)N)C(OCc2ccc3ccccc3c2)C1O (stereo not shown) [Compound 255]
MC4 inhibition at 10 micromolar (MC4): + (Indicates inhibition greater than . . . 50%)
SSTS inhibition at 10 micromolar (SST5): + (Indicates inhibition greater than . . . 50%)

COCC1OC(OCc2ccc(Cl)cc2)C(NC(=O)CCN)C(OCc2ccc3ccccc3c2)C1O (stereo not shown) [Compound 256]
MC4 inhibition at 10 micromolar (MC4): + (Indicates inhibition greater than . . . 50%)
SSTS inhibition at 10 micromolar (SST5): + (Indicates inhibition greater than . . . 50%)

COCC1OC(OCc2ccc(Cl)cc2)C(NC(=O)CCNC(=N)N)C(OCc2ccc3ccccc3c2)C1O (stereo not shown) [Compound 257]
MC4 inhibition at 10 micromolar (MC4): + (Indicates inhibition greater than . . . 50%)
SSTS inhibition at 10 micromolar (SST5): + (Indicates inhibition greater than . . . 50%)

COCC1OC(OCc2ccc(Cl)cc2)C(NC(=O)CCCN)C(OCc2ccc3ccccc3c2)C1O (stereo not shown) [Compound 258]
MC4 inhibition at 10 micromolar (MC4): + (Indicates inhibition greater than . . . 50%)
SSTS inhibition at 10 micromolar (SST5): + (Indicates inhibition greater than . . . 50%)

COCC1OC(OCc2ccc(Cl)cc2)C(NC(=O)CCCNC(=N)N)C(OCc2ccc3ccccc3c2)C1O (stereo not shown) [Compound 259]
MC4 inhibition at 10 micromolar (MC4): + (Indicates inhibition greater than . . . 50%)
SSTS inhibition at 10 micromolar (SST5): + (Indicates inhibition greater than . . . 50%)

COCC1OC(OCCc2ccccc2)C(NC(=O)CCNC(=N)N)C(OCc2ccccc2)C1O (stereo not shown) [Compound 263]
MC4 inhibition at 10 micromolar (MC4): + (Indicates inhibition greater than . . . 50%)
SSTS inhibition at 10 micromolar (SST5): + (Indicates inhibition greater than . . . 50%)

COCC1OC(OCCc2ccccc2)C(NC(=O)CCCNC(=N)N)C(OCc2ccccc2)C1O (stereo not shown) [Compound 265]
MC4 inhibition at 10 micromolar (MC4): + (Indicates inhibition greater than . . . 50%)
SSTS inhibition at 10 micromolar (SST5): + (Indicates inhibition greater than . . . 50%)

COCC1OC(OCCc2ccccc2)C(NC(=O)CNC(=N)N)C(OCc2ccc(Cl)cc2)C1O (stereo not shown) [Compound 267]
MC4 inhibition at 10 micromolar (MC4): + (Indicates inhibition greater than . . . 50%)
SSTS inhibition at 10 micromolar (SST5): + (Indicates inhibition greater than . . . 50%)

COCC1OC(OCCc2ccccc2)C(NC(=O)CCN)C(OCc2ccc(Cl)cc2)C1O (stereo not shown) [Compound 268]
MC4 inhibition at 10 micromolar (MC4): + (Indicates inhibition greater than . . . 50%)
SSTS inhibition at 10 micromolar (SST5): + (Indicates inhibition greater than . . . 50%)

COCC1OC(OCCc2ccccc2)C(NC(=O)CCNC(=N)N)C(OCc2ccc(Cl)cc2)C1O (stereo not shown) [Compound 269]
MC4 inhibition at 10 micromolar (MC4): + (Indicates inhibition greater than . . . 50%)
SSTS inhibition at 10 micromolar (SST5): + (Indicates inhibition greater than . . . 50%)

COCC1OC(OCCc2ccccc2)C(NC(=O)CCCN)C(OCc2ccc(Cl)cc2)C1O (stereo not shown) [Compound 270]
MC4 inhibition at 10 micromolar (MC4): + (Indicates inhibition greater than . . . 50%)
SSTS inhibition at 10 micromolar (SST5): + (Indicates inhibition greater than . . . 50%)

COCC1OC(OCCc2ccccc2)C(NC(=O)CCCNC(=N)N)C(OCc2ccc(Cl)cc2)C1O (stereo not shown) [Compound 271]
MC4 inhibition at 10 micromolar (MC4): + (Indicates inhibition greater than . . . 50%)
SSTS inhibition at 10 micromolar (SST5): + (Indicates inhibition greater than . . . 50%)

COCC1OC(OCCc2ccccc2)C(NC(=O)CN)C(OCc2ccc(-c3ccccc3)cc2)C1O (stereo not shown) [Compound 272]
MC4 inhibition at 10 micromolar (MC4): + (Indicates inhibition greater than . . . 50%)
SSTS inhibition at 10 micromolar (SST5): + (Indicates inhibition greater than . . . 50%)

COCC1OC(OCCc2ccccc2)C(NC(=O)CNC(=N)N)C(OCc2ccc(-c3ccccc3)cc2)C1O (stereo not shown) [Compound 273]
MC4 inhibition at 10 micromolar (MC4): + (Indicates inhibition greater than . . . 50%)
SSTS inhibition at 10 micromolar (SST5): + (Indicates inhibition greater than . . . 50%)

COCC1OC(OCCc2ccccc2)C(NC(=O)CN)C(OCc2ccc(-c3ccccc3)cc2)C1O (stereo not shown) [Compound 274]
MC4 inhibition at 10 micromolar (MC4): + (Indicates inhibition greater than . . . 50%)
SSTS inhibition at 10 micromolar (SST5): + (Indicates inhibition greater than . . . 50%)

COCC1OC(OCCc2ccccc2)C(NC(=O)CCNC(=N)N)C(OCc2ccc(-c3ccccc3)cc2)C1O (stereo not shown) [Compound 275]
MC4 inhibition at 10 micromolar (MC4): + (Indicates inhibition greater than . . . 50%)
SSTS inhibition at 10 micromolar (SST5): + (Indicates inhibition greater than . . . 50%)

COCC1OC(OCCc2ccccc2)C(NC(=O)CCCN)C(OCc2ccc(-c3ccccc3)cc2)C1O (stereo not shown) [Compound 276]
MC4 inhibition at 10 micromolar (MC4): + (Indicates inhibition greater than . . . 50%)
SSTS inhibition at 10 micromolar (SST5): + (Indicates inhibition greater than . . . 50%)

COCC1OC(OCCc2ccccc2)C(NC(=O)CCCNC(=N)N)C(OCc2ccc(-c3ccccc3)cc2)C1O (stereo not shown) [Compound 277]
MC4 inhibition at 10 micromolar (MC4): + (Indicates inhibition greater than . . . 50%)
SSTS inhibition at 10 micromolar (SST5): + (Indicates inhibition greater than . . . 50%)

COCC1OC(OCCc2ccccc2)C(NC(=O)CN)C(OCc2ccc3ccccc3c2)C1O (stereo not shown) [Compound 278]
MC4 inhibition at 10 micromolar (MC4): + (Indicates inhibition greater than . . . 50%)
SSTS inhibition at 10 micromolar (SST5): + (Indicates inhibition greater than . . . 50%)

COCC1OC(OCCc2ccccc2)C(NC(=O)CNC(=N)N)C(OCc2ccc3ccccc3c2)C1O (stereo not shown) [Compound 279]
MC4 inhibition at 10 micromolar (MC4): + (Indicates inhibition greater than . . . 50%)
SSTS inhibition at 10 micromolar (SST5): + (Indicates inhibition greater than . . . 50%)

COCC1OC(OCCc2ccccc2)C(NC(=O)CN)C(OCc2ccc3ccccc3c2)C1O (stereo not shown) [Compound 280]
MC4 inhibition at 10 micromolar (MC4): + (Indicates inhibition greater than . . . 50%)
SSTS inhibition at 10 micromolar (SST5): + (Indicates inhibition greater than . . . 50%)

COCC1OC(OCCc2ccccc2)C(NC(=O)CCNC(=N)N)C(OCc2ccc3ccccc3c2)C1O (stereo not shown) [Compound 281]
MC4 inhibition at 10 micromolar (MC4): + (Indicates inhibition greater than . . . 50%)
SSTS inhibition at 10 micromolar (SST5): + (Indicates inhibition greater than . . . 50%)

COCC1OC(OCCc2ccccc2)C(NC(=O)CCCN)C(OCc2ccc3ccccc3c2)C1O (stereo not shown) [Compound 282]
MC4 inhibition at 10 micromolar (MC4): + (Indicates inhibition greater than . . . 50%)
SSTS inhibition at 10 micromolar (SST5): + (Indicates inhibition greater than . . . 50%)

COCC1OC(OCCc2ccccc2)C(NC(=O)CCCNC(=N)N)C(OCc2ccc3ccccc3c2)C1O (stereo not shown) [Compound 283]
MC4 inhibition at 10 micromolar (MC4): + (Indicates inhibition greater than . . . 50%)
SSTS inhibition at 10 micromolar (SST5): + (Indicates inhibition greater than . . . 50%)

COCC1OC(OCc2ccc3ccccc3c2)C(NC(=O)CNC(=N)N)C(OCc2ccccc2)C1O (stereo not shown) [Compound 285]
MC4 inhibition at 10 micromolar (MC4): + (Indicates inhibition greater than . . . 50%)
SSTS inhibition at 10 micromolar (SST5): + (Indicates inhibition greater than . . . 50%)

COCC1OC(OCc2ccc3ccccc3c2)C(NC(=O)CN)C(OCc2ccccc2)C1O (stereo not shown) [Compound 286]
MC4 inhibition at 10 micromolar (MC4): + (Indicates inhibition greater than . . . 50%)
SSTS inhibition at 10 micromolar (SST5): + (Indicates inhibition greater than . . . 50%)

COCC1OC(OCc2ccc3ccccc3c2)C(NC(=O)CCNC(=N)N)C(OCc2ccccc2)C1O (stereo not shown) [Compound 287]
MC4 inhibition at 10 micromolar (MC4): + (Indicates inhibition greater than . . . 50%)
SSTS inhibition at 10 micromolar (SST5): + (Indicates inhibition greater than . . . 50%)

COCC1OC(OCc2ccc3ccccc3c2)C(NC(=O)CNC(=N)N)C(OCc2ccc(Cl)cc2)C1O (stereo not shown) [Compound 291]
MC4 inhibition at 10 micromolar (MC4): + (Indicates inhibition greater than . . . 50%)
SSTS inhibition at 10 micromolar (SST5): + (Indicates inhibition greater than . . . 50%)

COCC1OC(OCc2ccc3ccccc3c2)C(NC(=O)CCNC(=N)N)C(OCc2ccc(Cl)cc2)C1O (stereo not shown) [Compound 293]
MC4 inhibition at 10 micromolar (MC4): + (Indicates inhibition greater than . . . 50%)
SSTS inhibition at 10 micromolar (SST5): + (Indicates inhibition greater than . . . 50%)

COCC1OC(OCc2ccc3ccccc3c2)C(NC(=O)CCCN)C(OCc2ccc(Cl)cc2)C1O (stereo not shown) [Compound 294]
MC4 inhibition at 10 micromolar (MC4): + (Indicates inhibition greater than . . . 50%)
SSTS inhibition at 10 micromolar (SST5): + (Indicates inhibition greater than . . . 50%)
